Reference: patent US20050238734A1, “Detection of nitrosylated proteins” (University of Vermont and State Agricultural College, priority 2004, published 2005)

How the values were obtained:
IKKβ [1] = molecular target: T1, IKKβ (Homo sapiens, UniProt O14920); assay: Biotin derivatization (biotin switch) of IKKβ in Jurkat T cells; type: cell-based
T1 construct: IKKβ was immunopurified from TNFα-stimulated Jurkat T cells treated with SNO; endogenous in cells; host or cells: Jurkat T cells
T1 sequence (O14920 1-756): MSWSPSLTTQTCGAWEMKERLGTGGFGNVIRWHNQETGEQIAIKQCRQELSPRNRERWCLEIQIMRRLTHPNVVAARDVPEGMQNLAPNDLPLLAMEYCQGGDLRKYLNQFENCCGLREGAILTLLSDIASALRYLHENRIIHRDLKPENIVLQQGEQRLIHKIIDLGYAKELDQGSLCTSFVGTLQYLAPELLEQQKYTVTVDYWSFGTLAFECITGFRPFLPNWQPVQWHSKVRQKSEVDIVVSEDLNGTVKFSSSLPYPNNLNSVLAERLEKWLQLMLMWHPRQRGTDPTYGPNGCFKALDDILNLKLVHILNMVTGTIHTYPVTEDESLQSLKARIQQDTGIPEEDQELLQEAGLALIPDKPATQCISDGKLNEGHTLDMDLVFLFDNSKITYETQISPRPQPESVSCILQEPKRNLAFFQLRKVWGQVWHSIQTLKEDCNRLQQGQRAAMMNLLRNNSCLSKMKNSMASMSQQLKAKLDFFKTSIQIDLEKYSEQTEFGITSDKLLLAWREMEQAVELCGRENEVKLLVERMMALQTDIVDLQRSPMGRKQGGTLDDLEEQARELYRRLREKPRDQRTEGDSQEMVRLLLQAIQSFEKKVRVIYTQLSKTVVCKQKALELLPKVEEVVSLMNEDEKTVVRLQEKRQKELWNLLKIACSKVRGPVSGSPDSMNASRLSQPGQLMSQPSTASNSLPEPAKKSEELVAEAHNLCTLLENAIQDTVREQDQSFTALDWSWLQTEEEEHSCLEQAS
Experimental: The detection of S-nitrosylated proteins was performed via a biotin switch method as follows. Following treatments, the cells were rinsed 2 times with PBS containing 0.1 mM EDTA and 0.01 mM neocuproine and lysed in HEN buffer (25 mM HEPES, pH 7.7, 0.1 mM EDTA, 0.01 mM neocuproine) containing 0.5% CHAPS, 0.1% SDS and 20 mM N-ethylmaleimide (NEM) at 4° C. for 30 min in order to block free thiols. The lysates were cleared by centrifugation at 14,000 g, 4° C. for 10 min and excess NEM was removed by protein precipitation using cold acetone. The protein pellets were resuspended in HENS buffer (HEN 1% SDS), and the SNO bonds were decomposed by adding 20 mM sodium ascorbate. The resulting free thiols were reacted with 0.05 mM sulfhydryl-specific biotinylating agent, N-(3-malemidylpropionyl)biocytin (MPB, Molecular Probes) for 30 min at room temperature, resulting in biotinylation of SNO. […] Biotinylated IKKβ was detected on the membrane using horseradish peroxidase-linked streptavidin. […]
A biotin derivatization method was also used to assess whether the IKKβ subunit is directly targeted by S-nitrosylation. […] IKKβ was subsequently immunoprecipitated from the lysates and its biotinylation was assessed using streptavidin-HRP on a western blot. […]

RelA (p65) = RelA (p65) immunostaining, cytoplasmic versus nuclear localization; type: cell-based, mouse
Experimental: FIGS. 4G and 4H illustrates an assessment of the presence of cytoplasmic protein. C10 cells were mock-treated (sham) (FIG. 4G) or stimulated with TNF alpha for 30 minutes, and submitted to the biotinylation protocols similar to those described above with respect to FIG. 1. RelA (p65) was detected using specific antibodies (Santa Cruz).
FIGS. 6A and 6C illustrate cells that were incubated with leptomycin B (5 ng/ml) for about 12 hours, followed by biotin derivatization, incubation with streptavidin-FITC, and analysis by confocal microscopy. […] These findings thus support the notion that S-nitrosylation occurs in proteins that are regulated by nuclear trafficking.
To ensure that the cytoplasmic targets were still present after this procedure, the presence of RelA was evaluated in sham or TNF alpha-treated cells. RelA, a subunit of the transcription factor, nuclear factor kappa B, is normally present in the cytoplasm and is translocated into the nucleus upon exposure to TNF alpha. […] In fact, increased S-nitrosylation of cytoplasmic proteins was observed after induction of NOS2 activity.

wt HA-IKKβ = molecular target: T2, wt HA-IKKβ (Homo sapiens, UniProt O14920); assay: TNFα-stimulated kinase activity of transfected wt HA-IKKβ in C10 cells; type: cell-based; settings: TNFα-stimulated enzymatic activity
T2 construct: expressed in transfected cells; host or cells: C10 mouse lung epithelial cells; plasmid a gift of Dr. Michael Karin
T2 sequence (O14920 1-756): T1 sequence (O14920 1-756)
Experimental: The cells were exposed to test agents and at indicated times, transferred to ice, washed twice with cold PBS, and lysed in buffer containing 50 mM HEPES, 150 mM NaCl, 1 mM EDTA, 2 mM MgCl2, 10 mM Na3VO4, 1 mM phenylmethylsulfonyl fluoride, 0.1% Nonidet P-40, 10 μg/ml leupeptin, 1% aprotinin, 250 μM DTT and 100 μM NaF. The lysates were cleared by centrifugation at 14,000 rpm, 4° C. for 10 min. Protein concentrations were determined and the IKK complex was immunoprecipitated with an IKKγ antibody (Santa Cruz) at 4° C. for 1.5 h using protein G agarose beads. The precipitates were washed once with lysis buffer and twice with kinase buffer (20 mM HEPES, 20 mM β-glycerolphosphate, 1 mM MnCl2, 5 mM MgCl2, 2 mM NaF and 250 μM DTT). The kinase reaction was performed using 1 μg glutathione-S transferase (GST)-IκBα as a substrate, provided by Dr. Rosa Ten (Mayo Clinic, Rochester, Minn.), and 5 μCi γ^32P-adenosine triphosphate at 30° C. for 30 min. Kinase assays were performed in presence of 250 μM DTT, the minimal concentration necessary in order to maintain maximal TNFα-stimulated activity. The reactions were stopped by the addition of 2× Laemmli sample buffer. […] In separate experiments, the immunoprecipitated IKK complex or JNK1 from TNFα-stimulated cells was exposed to SNAP or GSNO for 15 min in lysis buffer in vitro prior to assessment of kinase activity. […]

IKKβ [2] = molecular target: T1, IKKβ; assay: SNO content of immunopurified IKKβ by chemiluminescence; type: cell-based; settings: Jurkat T cells exposed to L-CSNO and TNFα
Experimental: The total cellular SNO concentration (protein-bound plus free) was measured in lysates of cells treated with SNO in presence or absence of L-or D-cys. After 3 washes with PBS, the cells were lysed in the same buffer as was used for the biotin switch method. […] The amount of NO released from samples was estimated from a standard curve generated by injection of L-CSNO stock solutions. IKKβ was immunoprecipitated from Jurkat T cell lysates, using a monoclonal IKKβ antibody and protein G-agarose beads. After washing the immunoprecipitates 3 times with HEN buffer containing 50 mM NaCl to minimize co-associating proteins, the antigen-antibody complexes were removed from the beads by three 10 min incubations in 50 μl of 100 mM glycine pH 3.0 at 4° C. The eluates were treated with 0.6% sulfanilamide prior to the assessment of the SNO content via chemiluminescence, as described before. As a control, some lysates or immunoprecipitates were treated with 4.4 mM HgCl2 for 10 min at RT, followed by 20 min incubation at 4° C., and 10 min incubation with sulfanilamide at RT. To confirm that IKKβ was the predominant protein immunoprecipitated under these conditions, Laemmli sample buffer was added to the immunoprecipitate, samples were boiled, and evaluated on a silver-stained gel. All experiments were repeated at least two times and similar results were obtained. […]

C10 cells = assay: In situ detection of S-nitrosylated proteins in intact cells (biotin derivatization, streptavidin-FITC, confocal microscopy); type: cell-based, mouse
Experimental: A line of spontaneously transformed mouse lung alveolar type II epithelial cells (C10) was used in some experiments, as described below. C10 cells were cultured in CMRL1066 medium containing 10% fetal bovine serum (FBS, GIBCO). In experiments involving microscopic analysis, the cells were grown on glass cover slips. At about one hour prior to exposure to a test agent, the medium was switched to phenol red free DMEM/F12 containing 0.5% FBS. Some cells were exposed to S-nitroso-glutathione (GSNO) or S-nitroso-N-acetyl penicillamine (SNAP) for about 1 hour, in the presence of an equimolar concentration of freshly prepared L-cysteine. To monitor S-nitrosylation in response to NOS2 activation, the cells were treated with 10 ng/ml TNF alpha (TNFα) and 100 U/ml interferon gamma (IFNγ), for about 24 hours. Incubation with L-N-monomethyl arginine (L-NMMA) for about 16 hours was used to inhibit endogenous NO production and D-NMMA (D-N-monomethyl arginine) was used as a control. Nuclear export was blocked by leptomycin B (5 ng/ml, exposure for about 12 hours). All experiments were performed in duplicate and were repeated at least three times.
To evaluate the localization of S-nitrosylated proteins in intact cells, the biotin derivatization method described above was used in combination with fluorophore labeling and visualized using confocal microscopy. Cells grown on cover slips were rinsed with PBS containing 0.1 mM EDTA and 0.01 mM neocuproine, and fixed in 4% PFA (paraformaldehyde) for 20 minutes at RT. The cells were permeabilized, and protein SH groups were blocked using HEN buffer containing 2.5% SDS, 0.5% CHAPS, and 20 mM MMTS (methylmethanethiosulfonate) for 20 min at 55° C. with constant shaking. After removal of MMTS, the cells were incubated with 1 mM sodium ascorbate and 0.4 mM biotin-HPDP (N-[6-(biotinamido)hexyl]-3′-(2′-pyridyldithio)propionamide) for about an hour at RT, and the cover slips were then incubated overnight with streptavidin-FITC at 4° C. Blocking was performed using 20 mM NEM for 30 minutes at 4° C., followed by incubation with 0.05 mM MPB and 1 mM sodium ascorbate for 1 hour at RT. The nuclei were stained with 10 microgram/ml PI (propidium iodide) for 30 minutes at RT. The cells were analyzed by confocal microscopy (magnification 40×) using an Olympus BX50 microscope coupled to a Bio-Rad (Hercules Calif.) MRC 1024 confocal scanning laser microscope system. Control experiments were also performed in which blocking of SH groups was omitted, or in which 100 micromolar HgCl2 was added prior to blocking of SH groups with MMTS or NEM. To assess the contribution of endogenous biotinylated proteins, the biotin-label was omitted in some control cover slips. All manipulations were performed in the dark. […]

TNF alpha
S-nitrosylation of IKKβ (biotinylation) (IKKβ [1]): decreased | RelA presence in nucleus (RelA (p65); 30 minutes, dual staining with PI): enhanced nuclear presence

N[C@@H](CSN=O)C(=O)O [L-CSNO]
activity of wt HA-IKKβ (wt HA-IKKβ): inhibited | S-nitrosylation of IKKβ (biotinylation) (IKKβ [1]): increase | SNO content of IKKβ (IKKβ [2]): marked increase

CC(=O)N[C@H](C(=O)O)C(C)(C)SN=O [SNAP, S-nitroso-N-acetyl penicillamine]
biotinylation (S-nitrosylated proteins) in intact cells (C10 cells; 1 mM, 1 hour): enhanced

CCC(=C/[C@H](C)C/C=C/C(C)=C/[C@@H](C)C(=O)[C@@H](C)[C@H](O)[C@@H](C)C/C(C)=C/C(=O)O)/C=C/[C@@H]1OC(=O)C=C[C@@H]1C [leptomycin B]
biotinylation in the nuclear compartment (C10 cells; 5 ng/ml, about 12 hours): enhanced | nuclear sequestration of RelA (RelA (p65); 5 ng/ml, about 12 hours): enhanced

OO [H2O2, hydrogen peroxide]
staining pattern (biotinylation) (C10 cells; 500 micromolar, 15 minutes): failed to alter
